Data taken from patent publication US5928860A, “Process for determining the tolerance, or toxicity of gaseous, liquid and/or viscous substances for the human or animal organism” (priority 1997, dated 1999).

Key:
[1] = tested on: rabbit eye; assay: test of vitreous body replacements in the rabbit eye (animal test)
[2] = tested on: explants of neonatal rabbit kidneys; assay type: cell-based
From the text: An interactive tissue culture system was established for testing of toxicity. The culture system should provide information on whether the action of the substance perfluorophenathrene which changes the vessels can be established in vitro. Explants of neonatal rabbit kidneys were chosen as the test tissue. Antibodies for detection of vessels in the rabbit tissues are available in laboratory. In addition, the vascular system in this tissue has an extraordinarily high degree of spacial order. The preservation of the structure of the vascular system after application of the test substance was the parameter for assessment of the toxic effect in this test.
Tissue preparation: One to three day old rabbits were sacrificed by cervical dislocation. Organ explants were prepared immediately after removal of the kidneys.
The kidneys of neonatal rabbits are not yet completely developed. In the outermost region of the organ directly under the organ capsule, all nephron developments stages are found in addition to the embryonal tissue. Microsurgical organ explants were prepared from this region. To do this the kidneys were cut in half lengthwise. With fine tweezers the thin organ capsule was removed. With the organ capsule, the renal tissue still in development was detached. Proteases were not used in this preparation method, i.e. the organ-typical extracellular matrix and the intercellular connections remained intact. The organ explants were then stretched onto the retaining ring system.
Culture of the kidney explants: By using a retaining ring system it was possible to use tissue explants which had been […] for the tests. The tissue fragment was prepared in the corresponding size and fixed in the retaining ring. Proteolytic disintegration of the tissue, as can be necessary for culture in the conventional culture dish applications, was not carried out. The tissue fragment stretched onto the retaining ring was brought into contact with the tissue top or bottom with the test substance. The tissue top was defined as the side covered by the organ capsule. The tissue bottom was the tissue side exposed by the preparation. The tissue explants prepared in this way were cultivated with continuous throughflow of the medium. Use of perfusion culture technique in this case enabled complete abandonment of additives of fetal calf serum, adult serum or tissue extracts. The medium consists of a commercially available basic medium (Iscove's Modified Dulbecco's Medium, IMDM) to which the hormones aldosterone (10^-7 M) and 1.25 dihydroxyvitamin D3 (10^-9 M) have been added. In the presence of these hormones the structure of the renal tissue is completely preserved. Necroses were not observed even after culture times of more than 10 days.
For the perfusion culture, stretched explant 5 (organ samples) were inserted into the gradient chamber so that one upper and one lower compartment 6 or 7 are formed which are separated from one another by tissue 5. Upper compartment 6 was filled with the given test substance and no flow takes place through it in the experiment since the test substance was of viscous consistency. Throughflow of the test substance however would be possible in the application of liquid or gaseous substances.
Lower compartment 7 was filled with nutrient solution which was continuously pumped through the chamber compartment. Storage bottle 13 of the medium was connected via a hose connection 11 to the inlet 8 of lower chamber 7. Chamber outflow 9 was connected to the waste bottle. Storage bottle 13 was kept at 4° C. during the entire culture time. Supply hose 11 was inserted into 12 which ensured constant flushing of chamber with medium at 1 ml/h. […] Fundamentally other flow rates are possible. […]

[3] = tested on: tumor cells
From the text: In this example, two of these replacements (the substances perfluorophenathrene and perfluorodecaline) were studied. The substances have been tested in a cell culture system.
Cell culture systems are outstandingly suited for detection of acute toxic effects. They allow prompt testing of the direct toxic effect. If the toxicity of a substance is however based on cellular interactions, other systems must be used for analysis.

[4] = tested on: rabbit eye; conditions: in vivo

| SMILES | tolerance in animal test [1] | Expression of EC 1 antigen [2] | Tissue structure [2] | Vascular structure [2] | preservation of the vascular network / vascular system in renal explants [2] | toxic effects in cell culture [3] | damage to the retina or eye [4] | expression of the EC 1 antigen / detection of endothelial cells [2] |
| --- | --- | --- | --- | --- | --- | --- | --- | --- |
| FC1(F)C(F)(F)C(F)(F)C2(F)C(F)(F)C(F)(F)C(F)(F)C(F)(F)C2(F)C1(F)F (stereo not shown) [Perfluorodecaline, perfluorodecaline] | good tolerance | + | + | + | excellent preservation of the vascular system | no indications of toxic effects |  |  |
| FC1(F)C(F)(F)C(F)(F)C2(F)C(F)(C1(F)F)C(F)(F)C(F)(F)C1(F)C(F)(F)C(F)(F)C(F)(F)C(F)(F)C12F (stereo not shown) [Perfluorophenathrene, perfluorophenathrene] |  | + |  | - |  |  | major damage to the eye | expression of the EC 1 antigen was not influenced |
